According to ChEMBL document CHEMBL5321259, “Synthesis and structure-activity relationship studies of naphthoquinones as STAT3 inhibitors” (Bioorg Med Chem, 2023):
Activity calls are given as the source filed them. No cut-off for these calls is given here.

Columns and labels:
MDA-MB-231 = assay: Antiproliferative activity against human MDA-MB-231 cells assessed as inhibition of cell growth measured after 72 hrs by WST-8 method; assay type: functional, cell-based; conditions: MDA-MB-231, 72 h
A549 [1] = assay: Antiproliferative activity against human A549 cells assessed as inhibition of cell growth measured after 72 hrs by WST-8 method; assay type: functional, cell-based; conditions: A549, 72 h
[2] = target: Signal transducer and activator of transcription 3 (Homo sapiens) (UniProt P40763); assay: Inhibition of STAT3 phosphorylation in human A549 cells assessed as decrease in IL-6 stimulated STAT3 phosphorylation at 0.5 to 3 uM preincubated for 1 hr followed by IL-6 stimulation and measured after 1 hrs by Western blot analysis; assay type: cell-based; conditions: dose 0.5-3 µM, time 2.0 hrs
[3] = target: Signal transducer and activator of transcription 3 (Homo sapiens) (UniProt P40763); assay: Inhibition of IL-6 stimulated STAT3 phosphorylation in human A549 cells at <0.1 uM preincubated for 1 hr followed by IL-6 stimulation and measured after 1 hrs by Western blot analysis relative to control; assay type: cell-based; conditions: time 2.0 hrs
A549 [4] = assay: Antiproliferative activity against human A549 cells measured after 24 hrs by MTT assay; assay type: functional, cell-based; conditions: A549, 24 h
[5] = target: Signal transducer and activator of transcription 3 (Homo sapiens) (UniProt P40763); assay: Inhibition of IL-6 stimulated STAT3 phosphorylation in human A549 cells at 10 uM preincubated for 1 hr followed by IL-6 stimulation and measured after 1 hrs by Western blot analysis; assay type: cell-based; conditions: time 2.0 hrs

Sequence of Signal transducer and activator of transcription 3 (Homo sapiens) (P40763 whole entry): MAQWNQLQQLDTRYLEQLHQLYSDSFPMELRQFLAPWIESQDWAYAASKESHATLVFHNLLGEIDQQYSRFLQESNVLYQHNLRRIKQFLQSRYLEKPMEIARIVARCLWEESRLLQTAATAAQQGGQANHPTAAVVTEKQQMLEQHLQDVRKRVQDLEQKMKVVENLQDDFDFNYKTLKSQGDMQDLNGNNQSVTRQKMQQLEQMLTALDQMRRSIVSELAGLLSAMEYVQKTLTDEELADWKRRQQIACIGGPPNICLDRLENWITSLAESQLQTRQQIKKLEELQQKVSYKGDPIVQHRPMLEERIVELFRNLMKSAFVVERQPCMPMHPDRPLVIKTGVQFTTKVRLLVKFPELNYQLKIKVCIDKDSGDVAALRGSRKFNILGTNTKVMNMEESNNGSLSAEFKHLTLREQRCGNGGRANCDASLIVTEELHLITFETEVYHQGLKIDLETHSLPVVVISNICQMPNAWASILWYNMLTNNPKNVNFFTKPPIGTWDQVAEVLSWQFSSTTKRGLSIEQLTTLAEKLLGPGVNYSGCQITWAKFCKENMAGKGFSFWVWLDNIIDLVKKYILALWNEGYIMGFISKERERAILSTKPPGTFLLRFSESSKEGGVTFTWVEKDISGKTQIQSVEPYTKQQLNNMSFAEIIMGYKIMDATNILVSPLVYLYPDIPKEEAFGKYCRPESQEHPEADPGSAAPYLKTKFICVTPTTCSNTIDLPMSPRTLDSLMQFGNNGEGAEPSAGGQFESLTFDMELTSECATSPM

Row | SMILES | IC50 (MDA-MB-231) [nM] | IC50 (A549 [1]) [nM] | inhibition [2] | inhibition [3] [%] | IC50 (A549 [4]) [nM] | inhibition [5]
1 | C[C@H](O)c1cc2c(o1)C(=O)c1cccc(O)c1C2=O | 350 | 160 |  |  |  | 
2 | O=C1C(Nc2ccccc2N2CCNCC2)=CC2=NS(=O)(=O)c3cccc1c32 |  |  |  |  | ≤ 4660 | 
3 | CC(=O)c1cc2c(o1)-c1cccc(O)c1C(=O)C2=O | 1400 | 620 | Active | 100 |  | 
4 | CC1(C)CCC2=C(O1)c1cccc(O)c1C(=O)C2=O | 1400 | 630 |  |  |  | inactive
5 | CC(=O)c1cc2c(o1)-c1ccccc1C(=O)C2=O | 1500 | 1700 | Active |  |  | 
6 | C[C@H](O)c1cc2c(o1)-c1cccc(O)c1C(=O)C2=O | 2400 | 390 | Active | 100 |  | 
7 | CC(O)c1cc2c(o1)C(=O)c1cccc(S(=O)(=O)N(C)C)c1C2=O (configuration not stated) | 770 | 1200 | Active |  |  | 

Continued, values first:

Row | IC50 (MDA-MB-231) [nM] | IC50 (A549 [1]) [nM] | inhibition [2] | inhibition [3] [%] | IC50 (A549 [4]) [nM] | inhibition [5] | SMILES
8 | 89 | 54 | Active | 100 |  |  | CC(=O)c1cc2c(o1)C(=O)c1cccc3c1C2=NS3(=O)=O
9 | 310 | 490 |  |  |  |  | CC(O)c1cc2c(o1)C(=O)c1ccc(S(N)(=O)=O)cc1C2=O (configuration not stated)
10 | 110 | 140 |  |  |  |  | CC(=O)c1cc2c(o1)C(=O)c1ccc(S(N)(=O)=O)cc1C2=O
11 | 49 | 34 | Active | 100 |  |  | CC(O)c1cc2c(o1)C(=O)c1cccc3c1C2=NS3(=O)=O (configuration not stated)
